Activity calls are given as the source filed them. How the calls were made is not given here.

For the experiment, the target named is Ephrin type-B receptor 4 (Homo sapiens) (UniProt P54760). Nature of the experiment: blockers of EphB4 ligand binding – biochemical, TNYL-RAW peptide displacement, dose response (AID 835). Particulars: EphB4-ephrin-B2 interaction.
Sequence of Ephrin type-B receptor 4 (Homo sapiens) (P54760 whole entry, looked up): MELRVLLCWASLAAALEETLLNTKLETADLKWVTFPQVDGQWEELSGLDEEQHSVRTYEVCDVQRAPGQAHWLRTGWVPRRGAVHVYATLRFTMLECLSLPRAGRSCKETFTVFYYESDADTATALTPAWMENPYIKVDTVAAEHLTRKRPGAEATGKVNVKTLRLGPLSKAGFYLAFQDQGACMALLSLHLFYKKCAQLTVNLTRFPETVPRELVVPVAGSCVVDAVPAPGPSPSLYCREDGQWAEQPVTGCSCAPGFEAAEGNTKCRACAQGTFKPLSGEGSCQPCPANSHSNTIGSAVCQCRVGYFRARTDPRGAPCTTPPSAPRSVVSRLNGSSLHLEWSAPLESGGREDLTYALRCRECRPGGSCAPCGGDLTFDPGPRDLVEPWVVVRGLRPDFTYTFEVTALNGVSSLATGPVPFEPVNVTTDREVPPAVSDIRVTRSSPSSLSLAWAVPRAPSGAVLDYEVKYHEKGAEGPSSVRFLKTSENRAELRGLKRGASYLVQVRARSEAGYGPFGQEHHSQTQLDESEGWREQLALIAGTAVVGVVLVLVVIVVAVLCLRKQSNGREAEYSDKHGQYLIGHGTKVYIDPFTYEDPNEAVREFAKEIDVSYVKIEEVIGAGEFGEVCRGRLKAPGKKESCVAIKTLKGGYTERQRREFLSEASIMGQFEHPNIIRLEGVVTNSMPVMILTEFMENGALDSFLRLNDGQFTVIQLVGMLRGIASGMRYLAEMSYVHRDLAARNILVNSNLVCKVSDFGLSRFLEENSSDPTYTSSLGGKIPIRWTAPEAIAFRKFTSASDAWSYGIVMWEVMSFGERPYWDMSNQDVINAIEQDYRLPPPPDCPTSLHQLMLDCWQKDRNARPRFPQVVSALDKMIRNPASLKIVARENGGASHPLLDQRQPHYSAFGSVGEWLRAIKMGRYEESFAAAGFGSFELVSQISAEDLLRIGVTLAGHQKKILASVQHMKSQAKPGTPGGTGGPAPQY
As for `CC1=Nc2ccccc2/C1=C\c1nc(-c2ccc(C(F)(F)F)cc2)oc1O`, the IC50 (in general, the concentration needed to halve the response being measured) is > 79.4 µM (inactive).

Turning to `CCOc1cccc(N2C(=O)CC(=O)NC2=O)c1`, the IC50 is > 79.4 µM (inactive). Under `Clc1cccc(/C=N/Nc2ncnc3ccccc23)c1` stands > 79.4 µM (inactive); under `CCOC(=O)C1=C(c2ccccc2)N2CCS(=O)(=O)N=C2S1`, > 79.4 µM (inactive); under `Oc1[nH]c2ccccc2c1N=Nc1nc2ccccc2s1`, > 79.4 µM (inactive). Then `COC(=O)CSC1=C(C#N)C(c2ccc(C)cc2)C2=C(CCCC2=O)N1` (centres undefined), with > 79.4 µM (inactive); and `CCCc1[nH]nc2c1C(c1ccc(OC)c(Cn3nnc4ccccc43)c1)C(C#N)=C(N)O2` (centres undefined), with > 79.4 µM (inactive).

For `CCn1c(O)c(C=Nc2ccc(N3CCOCC3)cc2)c(=O)n(CC)c1=S`, the IC50 is > 79.4 µM (inactive). For the compound `CC1=Nc2ccccc2/C1=C\c1nc(-c2ccc(F)cc2)oc1O`, the IC50 was > 79.4 µM (inactive).
